Data published in EP4782431A1 (Suzhou Merna Therapeutics Co. Ltd, priority 2023, dated 2025).

Tests used:
HaCaT cells = assay: m6A methylation level of human keratinocytes (EpiQuik m6A RNA methylation quantification kit); assay type: cell-based; settings: for m6A fold change: 24 hours
Protocol: HaCaT cells were cultured in DMEM culture medium containing 10% fetal bovine serum, 100 U/mL penicillin, and 100 µg/mL streptomycin. Culture dishes were placed in an incubator containing 5% CO2 for culture at 37°C for 24 hours. An equal volume of DMSO was added in control group 1, 50 nM sorafenib, capecitabine, docetaxel, and osimertinib were respectively added in control groups A, B, C, and D, and 400 nM test compounds or nicotinamide were respectively added in sample groups A1, A2, B1, B2, C1, C2, D1, and D2 after the addition of 50 nM corresponding compounds. The cells were continuously cultured for 24 hours, washed with PBS, and then collected by high-speed centrifugation. Total RNA was extracted using Trizol reagent (Sigma Aldrich), and RNA m6A methylation of a sample was quantitatively detected using an EpiQuik m6A RNA methylation quantification kit. The concentrations of positive control samples for a standard curve were 0.01 ng/µl, 0.02 ng/µl, 0.05 ng/µl, 0.1 ng/µl, 0.2 ng/µl, and 0.5 ng/µl. The absorbance at 450 nm was read using a microplate reader (Tecan GENios). A quantitative calculation formula for m6A is as follows: m6A(ng) = (absorbanceofsamplewell−absorbanceofbackroundwell)/slope of standard curve [formula] m6A(%) = m6A(ng)/RNA amount of sample(ng)*100%. [formula]

[1] = system: kinase inhibitor-induced mouse model with hand-foot skin reaction; assay: kinase inhibitor-induced mouse model with hand-foot skin reaction; assay type: in vivo, ICR mice; settings: for expression level of cytokine IL-1β in the skin tissues of the hind limb toes of the mice / infiltration of inflammatory cells / thickening of the epidermal layer and the stratum corneum in the skin tissues: 3% ointment topical or nicotinamide 100 mg/kg oral; for infiltration of inflammatory cells / thickening of the epidermal layer and the stratum corneum in the skin tissues / swelling of the toes caused by the modeling drugs: sorafenib and osimertinib models; for swelling of the toes caused by the modeling drugs: compound of formula (I) 3% ointment topical or nicotinamide 100 mg/kg oral, once daily 16 days; for cytokine IL-1β in the skin tissues of the hind limb toes of the mice: modeling drug oral 14 days, p<0.05; for cytokine IL-1β in the skin tissues of the hind limb toes of the mice / epidermal layer and the stratum corneum in the skin tissues of the hind limb toes / skin of the hind limb toes of the mice (appearance): vs normal control group; for swelling of the hind limb toes of the mice / epidermal layer and the stratum corneum in the skin tissues of the hind limb toes: modeling drug oral; for swelling of the hind limb toes of the mice: 14 days: sorafenib 100 mg/kg, osimertinib 10 mg/kg; for epidermal layer and the stratum corneum in the skin tissues of the hind limb toes: 14 days: sorafenib, osimertinib; for skin of the hind limb toes of the mice (appearance): modeling for 14 days: sorafenib 100 mg/kg, osimertinib 10 mg/kg oral gavage once daily
From the text: After adaptive feeding for 7 days, SPF-grade ICR mice (male, 5-6 weeks old, with a body weight of approximately 35 g) were randomly divided into groups, including a blank control group (6 mice), a sorafenib modeling group (6 mice), an osimertinib modeling group (6 mice), a sorafenib + compound of formula (I) group (6 mice), an osimertinib + compound of formula (I) group (6 mice), a sorafenib + nicotinamide group (6 mice), and an osimertinib + nicotinamide group (6 mice). The groups were respectively administered corresponding modeling drugs by oral gavage (sorafenib at 100 mg/kg and osimertinib at 10 mg/kg) once daily; and the blank control group was administered an equivalent volume of normal saline. After administration with the chemotherapeutic drugs for 2 weeks, the ointments containing the compound of formula (I) (at a compound content of 3%) used in Example 10 were respectively applied topically in the groups, or nicotinamide was orally administered (100 mg/kg) once daily continuously for 16 days.
Measurement of the degree of swelling of toes: The degree of swelling of hind limb toes of the mice was measured using a toe swelling tester (KW-7C, Nanjing Calvin Biotechnology Co., Ltd.) before administration with the modeling drugs, after administration with the modeling drugs for 2 weeks, and before sacrifice, respectively. Before measurement, ankle joints of hind feet of the mice were marked at same positions before administration, after administration for 2 weeks, and before sacrifice. During measurement, water was properly located at the same level as the marked positions, and numerical values were recorded after becoming stable.
Pathological staining of skin tissues: Skin tissue samples were selected from hind limb toes of the mice and placed in 4% paraformaldehyde for fixation at room temperature for 4 hours. Then, the tissues were taken out and rinsed with running water for several hours. The samples were subjected to dehydration treatment with 70%, 80%, and 90% ethanol solutions, followed by treatment with a mixed solution of equal amounts of absolute alcohol and xylene for 15 minutes, and then permeabilized twice with a xylene solution for 15 minutes each time until the samples became transparent. The samples were placed in a mixture of half xylene and half paraffin for soaking for 15 minutes, and then, paraffin I and paraffin II were added for wax penetration for one hour, respectively. After embedding with paraffin, the samples were sectioned, baked, dewaxed, and hydrated. Then, the hydrated sections were placed in a hematoxylin solution (ZSGB-BIO, article No. 23041001) for staining for 3 minutes, and a differentiation solution of hydrochloric acid in ethanol was added for differentiation for 15 seconds. After rinsing with water, a Scott bluing solution (Servicebio, article No. 20230801) was added for bluing for 15 seconds. After rinsing with running water, the sections were stained with an eosin solution (Solarbio, article No. 33535) for 3 minutes, rinsed with running water, dehydrated, permeabilized, sealed, and inspected under a microscope.
Immunohistochemical staining: After baking, dewaxing, and hydration, paraffin sections of skin tissues of hind limb toes of the mice were subjected to antigen retrieval using a 0.2 M citric acid buffer solution (containing 1.534 g of citric acid, 3.1 g of sodium citrate, and 100 mL of distilled water, pH 4.7). Endogenous […] was removed using 3% hydrogen peroxide (Shandong Annjet High-Tech Disinfection Technology Co., Ltd., article No. 20290902), and the sections were incubated at room temperature for 10 minutes and then fully rinsed with a PBS buffer solution (containing 8 g of NaCl, 0.2 g of KCl, 1.44 g of Na2HPO4, and 1 M HCl, pH 7.4). The sections were permeabilized with 0.5% Triton-X-100 (AmyJet Scientific, article No. A-CSH436-100 mL), respectively permeabilized with mouse anti-IL-1β and rabbit IL-8 for 10 minutes, and not permeabilized with rabbit anti-IL-6. […]

[2] = 400 nM after 50 nM capecitabine, relative to control group 1
[3] = 400 nM after 50 nM docetaxel, relative to control group 1
[4] = 400 nM after 50 nM osimertinib, relative to control group 1
[5] = 400 nM after 50 nM sorafenib, relative to control group 1
[6] = 50 nM drug alone, relative to control group 1 (DMSO)

Compound | abnormal increase in the RNA m6A level of human keratinocytes caused by chemotherapeutic drugs and multikinase inhibitors (HaCaT cells; 400 nM) | m6A fold change (HaCaT cells; [2]) | m6A fold change (HaCaT cells; [3]) | m6A fold change (HaCaT cells; [4]) | m6A fold change (HaCaT cells; [5]) | expression level of cytokine IL-1β in the skin tissues of the hind limb toes of the mice ([1]; osimertinib model) | infiltration of inflammatory cells [1] | thickening of the epidermal layer and the stratum corneum in the skin tissues [1] | swelling of the toes caused by the modeling drugs [1] | expression level of cytokine IL-1β in the skin tissues of the hind limb toes of the mice ([1]; sorafenib model) | m6A fold change (HaCaT cells; [6]) | cytokine IL-1β in the skin tissues of the hind limb toes of the mice [1] | swelling of the hind limb toes of the mice [1] | epidermal layer and the stratum corneum in the skin tissues of the hind limb toes [1] | skin of the hind limb toes of the mice (appearance) [1]
NC(=O)[C@H]1CCCc2c1[nH]c1ccc(Cl)cc21 [Compound of formula (I), (S)-6-chloro-2,3,4,9-tetrahydro-1H-carbazole-carboxamide] | effectively inhibit | 1.1 fold | 1.0 fold | 1.2 fold | 1.4 fold | significantly decrease | no infiltration of inflammatory cells observed | effectively alleviate | effectively alleviate | significantly decrease |  |  |  |  | 
NC(=O)c1cccnc1 [Nicotinamide, nicotinamide] |  | 4.5 fold | 5.4 fold | 5.0 fold | 4.7 fold | didn't have a significant impact | infiltration of inflammatory cells still observed | didn't significantly alleviate | not observed that oral administration of the nicotinamide at 100 mg/kg significantly alleviated the swelling | didn't have a significant impact |  |  |  |  | 
C=CC(=O)Nc1cc(Nc2nccc(-c3cn(C)c4ccccc34)n2)c(OC)cc1N(C)CCN(C)C [Osimertinib, osimertinib] |  |  |  |  |  |  |  |  |  |  | 4.8 fold | significantly increased | significant swelling of the hind limb toes of the mice was caused | significantly thickened | obvious erythema and rhagades
CNC(=O)c1cc(Oc2ccc(NC(=O)Nc3ccc(Cl)c(C(F)(F)F)c3)cc2)ccn1 [Sorafenib, sorafenib] |  |  |  |  |  |  |  |  |  |  | 4.5 fold | significantly increased | significant swelling of the hind limb toes of the mice was caused | significantly thickened | obvious erythema and rhagades
